According to patent publication EP2910242B1, “DURABLE […] SEBACOYL DI[…]-PLGA CONTROLLED RELEASE FORMULATION” (Hu, Oliver Yaopu, priority 2012, dated 2014):
Values after ≈ are worked out from the molar mass of the structure shown. Structures can show the parent of a compound that is named as a salt. Where two headings read alike, the source gives them in different places.

Tests used:
[1] = oil-in-water coefficient (logP)
[2] = subcutaneous injection of PLGA microspheres containing the drug; 50 mg/rabbit; cited from earlier work
[3] = drug saturated solubility in water

Compound	logP [1]	time the effective serum concentration lasted [2] [days]	solubility [3] [µg/mL]	solubility ([3]; water) [µg/mL]
CCC(=O)Oc1ccc2c3c1O[C@H]1[C@@H](O)CC[C@@]4(O)[C@@H](C2)N(CC2CCC2)CC[C@]314 [Nalbuphine propionate]	1.05	4	44.7 (≈ 108 µM)	
CCCCCCC(=O)Oc1ccc2c3c1O[C@H]1[C@@H](O)CC[C@@]4(O)[C@@H](C2)N(CC2CCC2)CC[C@]314 [Nalbuphine enanthate]	1.94		3 (≈ 6.39 µM)	
CC(C)(C)C(=O)Oc1ccc2c3c1O[C@H]1[C@@H](O)CC[C@@]4(O)[C@@H](C2)N(CC2CCC2)CC[C@]314 [Nalbuphine pivalate]	1.42	4	33.7 (≈ 76.3 µM)	
Oc1ccc2c3c1O[C@H]1[C@@H](O)CC[C@@]4(O)[C@@H](C2)N(CC2CCC2)CC[C@]314 [Nalbuphine HCl]				> 25000
CCCCCCCCCC(=O)Oc1ccc2c3c1O[C@H]1[C@@H](O)CC[C@@]4(O)[C@@H](C2)N(CC2CCC2)CC[C@]314 [Nalbuphine decanoate]	3.3	4	0.67 (≈ 1.31 µM)	
O=C(CCCCCCCCC(=O)Oc1ccc2c3c1O[C@H]1[C@@H](O)CC[C@@]4(O)[C@@H](C2)N(CC2CCC2)CC[C@]314)Oc1ccc2c3c1O[C@H]1[C@@H](O)CC[C@@]4(O)[C@@H](C2)N(CC2CCC2)CC[C@]314 [Sebacoyl dinalbuphine ester]	3.15		< 0.25	
